Assay results: ChEMBL document CHEMBL3045756, “Design, synthesis, antifungal activity, and ADME prediction of functional analogues of terbinafine” (Med Chem Res, 2009)
Values after ≈ are worked out from the molar mass of the structure shown.

Experiments:
Candida albicans = assay: Antifungal activity against Candida albicans NCIM 3557 after 48 hr by agar streak dilution method; assay type: functional; settings: NCIM 3557, 48 h
[1] = Acute toxicity in po dosed Mus musculus (mouse); assay type: organism-based; settings: in vivo

SMILES | MIC (Candida albicans) [µg/mL] | LD50 [1] [mg/kg]
CN(Cc1cc2ccccc2o1)Cc1cccc2cccnc12 | > 100 | 
CN(Cc1cccc2cccnc12)Cc1cccc2cccnc12 | 4 (≈ 12.8 µM) | 700
CN(Cc1ccc2ccccc2c1)Cc1cccc2cccnc12 | 8 (≈ 25.6 µM) | > 2000
CN(Cc1ccc(-c2ccccc2C#N)cc1)Cc1cccc2cccnc12 | > 100 | 
CN(Cc1ccc([N+](=O)[O-])cc1)Cc1cccc2cccnc12 | 25 (≈ 81.3 µM) | > 2000
CN(Cc1ccc(Cl)cc1)Cc1cccc2cccnc12 | 75 (≈ 253 µM) | 
CN(Cc1nc2cc(Cl)ccc2[nH]1)Cc1cccc2cccnc12 | 10 (≈ 29.7 µM) | > 2000
CN(Cc1nc2cc([N+](=O)[O-])ccc2[nH]1)Cc1cccc2cccnc12 | 25 (≈ 72 µM) | > 2000
Cc1ccc2[nH]c(CN(C)Cc3cccc4cccnc34)nc2c1 | > 100 | 
CN(Cc1nc2ccccc2[nH]1)Cc1cccc2cccnc12 | 40 (≈ 132 µM) | 
